Converted amounts (≈) assume the structure as drawn.
Columns and labels:
Candida albicans [1] = test: Antifungal activity against yeast form of Candida albicans; format: functional
Candida albicans [2] = test: Antifungal activity against mycelial form of Candida albicans; format: functional

MIC (Candida albicans [1]) [µg/mL]	MIC (Candida albicans [2]) [µg/mL]	SMILES
25 (≈ 26.4 µM)	50 (≈ 52.8 µM)	CCC(C)C(O)C(=O)N[C@H](CC(C)C)C(=O)N[C@H]1CCCNC(=O)[C@H](Cc2c[nH]c3ccc(O)cc23)NC(=O)/C=C/c2coc(n2)[C@H](C)NC(=O)C(=O)[C@H](CC(C)C)NC(=O)[C@@H]2CCCN2C1=O (some centres undefined) [DISCOBAHAMIN B]
25 (≈ 26.8 µM)	50 (≈ 53.6 µM)	CCC[C@@H](NC(=O)C(O)C(C)CC)C(=O)N[C@H]1CCCNC(=O)[C@H](Cc2c[nH]c3ccc(O)cc23)NC(=O)/C=C/c2coc(n2)[C@H](C)NC(=O)C(=O)[C@H](CC(C)C)NC(=O)[C@@H]2CCCN2C1=O (some centres undefined) [DISCOBAHAMIN A]
